# In ChEMBL document CHEMBL6096703 (J Med Chem, 2025):
# Calls of active or inactive are those of the source. The calls are words filed in the database; no cut-off is given here.
# Assays:
# [1] = target: Poly [ADP-ribose] polymerase 2 (Homo sapiens, UniProt Q9UGN5); experiment: Inhibition of PARP2 (unknown origin) preincubated with compound for 10 mins followed by DNA and NAD+ addition and measured after 60 mins by chemiluminescence based envision reader analysis
# [2] = Cmax in male Balb/c mouse at 1 mg/kg, po measured upto 96 hrs by LC-MS/MS analysis; format: ADME, organism-based; conditions: in vivo
# [3] = AUC(0 to t) in male Balb/c mouse at 1 mg/kg, po measured upto 96 hrs by LC-MS/MS analysis; format: ADME, organism-based; conditions: in vivo, po, 1 mg/kg, 96 h
# [4] = tested on: MDA-MB-436; experiment: Antiproliferative activity against human MDA-MB-436 cells assessed as inhibition of cell proliferation at 100 nM incubated for 7 days by CCK-8 assay relative to control; format: functional; conditions: MDA-MB-436, 168 h, time 7 day
# [5] = Tmax in male Balb/c mouse at 1 mg/kg, iv measured upto 96 hrs by LC-MS/MS analysis; format: ADME, organism-based; conditions: in vivo
# [6] = Apparent volume of distribution in male Balb/c mouse at 1 mg/kg, iv measured upto 96 hrs by LC-MS/MS analysis; format: ADME, organism-based; conditions: in vivo, iv, 1 mg/kg, 96 h
# [7] = Apparent volume of distribution in male Balb/c mouse at 1 mg/kg, po measured upto 96 hrs by LC-MS/MS analysis; format: ADME, organism-based; conditions: in vivo
# [8] = AUC(0 to t) in male Balb/c mouse at 1 mg/kg, iv measured upto 96 hrs by LC-MS/MS analysis; format: ADME, organism-based; conditions: in vivo, iv, 1 mg/kg, 96 h
# [9] = Cmax in rat at 2.5 mg/kg, iv measured upto 96 hrs by LC-MS/MS analysis; format: ADME, organism-based; conditions: in vivo
# [10] = Cmax in rat at 2.5 mg/kg, po measured upto 96 hrs by LC-MS/MS analysis; format: ADME, organism-based; conditions: in vivo
# [11] = Tmax in rat at 2.5 mg/kg, po measured upto 96 hrs by LC-MS/MS analysis; format: ADME, organism-based; conditions: in vivo
# [12] = Clearance in rat at 2.5 mg/kg, iv measured upto 96 hrs by LC-MS/MS analysis; format: ADME, organism-based; conditions: in vivo
# [13] = Oral bioavailability in rat at 2.5 mg/kg measured upto 96 hrs by LC-MS/MS analysis; format: ADME, organism-based; conditions: in vivo
# [14] = target: Poly [ADP-ribose] polymerase 1 (Homo sapiens, UniProt P09874); experiment: Inhibition of PARP1 in PARP2 knockout human A549 cells preincubated with compound for 1 hr followed by H2O2 addition and measured after 5 mins by selective targeting PARylation inhibition assay; format: cell-based
# Chain of Poly [ADP-ribose] polymerase 1 (P09874 whole entry): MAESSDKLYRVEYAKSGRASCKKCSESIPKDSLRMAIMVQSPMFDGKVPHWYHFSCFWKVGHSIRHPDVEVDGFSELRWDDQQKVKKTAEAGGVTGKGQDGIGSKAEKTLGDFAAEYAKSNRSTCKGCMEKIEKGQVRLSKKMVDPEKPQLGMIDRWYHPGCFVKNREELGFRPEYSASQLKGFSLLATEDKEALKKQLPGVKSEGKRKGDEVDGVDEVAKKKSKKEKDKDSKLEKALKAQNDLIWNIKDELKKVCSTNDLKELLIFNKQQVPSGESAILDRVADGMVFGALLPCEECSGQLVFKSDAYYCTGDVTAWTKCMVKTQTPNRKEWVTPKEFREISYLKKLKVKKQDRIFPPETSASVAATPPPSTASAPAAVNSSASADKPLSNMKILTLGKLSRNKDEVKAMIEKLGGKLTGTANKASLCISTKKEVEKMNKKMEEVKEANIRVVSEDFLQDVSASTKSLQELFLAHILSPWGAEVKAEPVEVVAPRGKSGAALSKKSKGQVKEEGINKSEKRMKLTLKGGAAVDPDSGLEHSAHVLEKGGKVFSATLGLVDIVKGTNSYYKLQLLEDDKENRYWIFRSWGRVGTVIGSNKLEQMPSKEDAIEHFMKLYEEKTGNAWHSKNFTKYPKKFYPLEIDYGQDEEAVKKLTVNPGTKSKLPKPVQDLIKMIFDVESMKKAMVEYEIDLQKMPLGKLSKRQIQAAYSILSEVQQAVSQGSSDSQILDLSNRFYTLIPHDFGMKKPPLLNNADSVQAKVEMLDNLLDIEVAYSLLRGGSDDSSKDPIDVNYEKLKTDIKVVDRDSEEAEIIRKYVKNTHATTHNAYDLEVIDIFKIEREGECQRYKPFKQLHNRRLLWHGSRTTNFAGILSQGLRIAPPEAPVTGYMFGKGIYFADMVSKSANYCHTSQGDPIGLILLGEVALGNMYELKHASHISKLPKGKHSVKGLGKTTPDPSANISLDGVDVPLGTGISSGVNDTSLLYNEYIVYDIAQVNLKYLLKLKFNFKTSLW
# [15] = tested on: DLD-1; experiment: Inhibition of colony formation in wild type human DLD-1 cells assessed as reduction in survival rate at 2.5 to 20 uM incubated for 10 days by crystal violet staining based assay; format: functional, cell-based; conditions: dose 2.5-20 µM, time 10.0 day
# [16] = tested on: MDA-MB-436; experiment: Induction of apoptosis in human MDA-MB-436 cells assessed as late apoptotic cells at 1 nM incubated for 3 days by Annexin V/ PI staining based flow cytometry (reference value: 6.57%); format: functional; conditions: time 3 day
# [17] = tested on: MDA-MB-436; experiment: Induction of cell cycle arrest in human MDA-MB-436 cells assessed as accumulation of cells at S phase at 10 nM incubated for 3 days by PI staining based flow cytometric analysis (Rvb =18.94%); format: functional; conditions: time 3 day
# [18] = tested on: MDA-MB-436; experiment: Induction of cell cycle arrest in human MDA-MB-436 cells assessed as accumulation of cells at G0/G1 phase at 1 nM incubated for 3 days by PI staining based flow cytometric analysis (Rvb =56.18%); format: functional; conditions: time 3 day
# [19] = Toxicity in female NOD/SCID mouse xenografted with human MDA-MB-436 cells assessed as histological changes in lung at 3 mg/kg, po administered once every other day for 28 days by H and E staining based analysis; format: organism-based; conditions: in vivo, 672 h, time 28 day
# [20] = Toxicity in female NOD/SCID mouse xenografted with human MDA-MB-436 cells assessed as histological changes in kidney at 3 mg/kg, po administered once every other day for 28 days by H and E staining based analysis; format: organism-based; conditions: in vivo, 672 h, time 28 day
# [21] = Acute toxicity in Kunming mouse assessed as mortality at 30 to 100 mg/kg administered via gavage once every other day for 14 days; format: organism-based; conditions: in vivo, po, 336 h, dose 30-100 mg/kg, time 14 day
# [22] = Acute toxicity in Kunming mouse assessed as change in heart structure at 300 mg/kg administered via gavage for 14 days by H and E staining based analysis; format: organism-based; conditions: in vivo, po, 336 h, time 14 day
# [23] = Acute toxicity in Kunming mouse assessed as change in cellular morphology of liver at 100 mg/kg administered once every other day via gavage for 14 days by H and E staining based analysis; format: organism-based; conditions: in vivo, po, 336 h, time 14 day
# [24] = Acute toxicity in Kunming mouse assessed as change in cellular morphology of spleen at 100 mg/kg administered once every other day via gavage for 14 days by H and E staining based analysis; format: organism-based; conditions: in vivo, po, 336 h, time 14 day
# [25] = Acute toxicity in Kunming mouse assessed as change in kidney structure at 300 mg/kg administered via gavage for 14 days by H and E staining based analysis; format: organism-based; conditions: in vivo, po, 336 h, time 14 day
# [26] = Sub-acute toxicity in Kunming mouse assessed as change LDH2 level at 100 to 300 mg/kg administered via gavage for 14 days; format: organism-based; conditions: in vivo, po, 336 h, dose 100-300 mg/kg, time 14 day
# [27] = tested on: MDA-MB-436; experiment: Antitumor activity against luciferase tagged human MDA-MB-436 cells xenografted in female NOD-SCID mouse assessed as tumor regression by measuring bioluminescence signal administered orally once a day for 34 days by bioluminescence imaging analysis; format: functional, cell-based; conditions: dose 3-10 mg/kg, route po, time 34.0 day
# Chain of Poly [ADP-ribose] polymerase 2 (Q9UGN5 whole entry): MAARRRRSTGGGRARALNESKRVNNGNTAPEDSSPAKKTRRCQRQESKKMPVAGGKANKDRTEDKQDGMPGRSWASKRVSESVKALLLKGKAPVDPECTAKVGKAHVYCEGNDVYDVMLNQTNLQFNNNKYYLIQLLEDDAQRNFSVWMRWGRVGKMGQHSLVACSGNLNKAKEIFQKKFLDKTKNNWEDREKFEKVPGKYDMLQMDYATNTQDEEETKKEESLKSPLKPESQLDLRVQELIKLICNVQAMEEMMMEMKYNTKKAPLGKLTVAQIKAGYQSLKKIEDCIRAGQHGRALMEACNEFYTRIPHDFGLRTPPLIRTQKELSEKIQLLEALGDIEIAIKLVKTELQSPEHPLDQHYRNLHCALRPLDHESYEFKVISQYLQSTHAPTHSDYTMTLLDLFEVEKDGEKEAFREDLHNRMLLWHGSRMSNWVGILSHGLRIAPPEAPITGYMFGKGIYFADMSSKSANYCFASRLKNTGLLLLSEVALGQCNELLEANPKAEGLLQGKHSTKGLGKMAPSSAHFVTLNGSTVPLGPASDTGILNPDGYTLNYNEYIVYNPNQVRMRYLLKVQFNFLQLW
smiles,measurement,setting,value
CCc1cc2ncc(CN3CC=C(c4ccc(C#N)cn4)CC3)cc2[nH]c1=O,IC50,[1],0.122 µM
same,Cmax,[2],6630 ng/mL
same,AUCt,[3],787.38372 µg·h/mL
same,inhibition at 0.1 µM,[4],82.2%
same,Tmax,[5],4.8 min
same,Vz,[6],0.16 L/kg
same,Vz,[7],0.13 L/kg
same,AUCt,[8],897.43221 µg·h/mL
same,Cmax,[9],13900 ng/mL
same,Cmax,[10],7540 ng/mL
same,Tmax,[11],8 h
same,clearance,[12],0.167 mL/min/kg
same,bioavailability,[13],85.5%
same,IC50,[14],0.0009 µM
same,inhibition,[15],inactive
same,Activity,[16],8.18%
same,Activity,[17],10.18%
same,Activity,[18],56.97%
same,Activity,[19],Non-toxic
same,Activity,[20],Non-toxic
same,Activity,[21],Non-toxic
same,Activity,[22],Non-toxic
same,Activity,[23],Non-toxic
same,Activity,[24],Non-toxic
same,Activity,[25],Non-toxic
same,Activity,[26],Non-toxic
same,Activity,[27],Dose-dependent-effect
